Assay results reported in US20240300940A1, “Phenothiazinyl Compounds and Uses” (Prosetta Biosciences, Inc., priority 2023, published 2024).
Like-named read-outs stand apart in the source and are kept apart here.

Key:
Organ exposure in mice = conditions: mice IV 3 mg/kg
E. coli ATCC25922 = assay: MIC assay, serial dilution; conditions: Escherichia coli
S. epidermidis ATCC14990 [1] = assay: MIC assay, serial dilution; conditions: Staphylococcus epidermidis
S. aureus ATCC25923 [2] = assay: MIC assay, serial dilution; conditions: Staphylococcus aureus
MRSA/S. aureus isolates = assay: MIC50 against isolates; format: cell-based; conditions: Staphylococcus aureus
S. pyogens ATCC49399 [3] = assay: MIC assay, serial dilution; conditions: Streptococcus
MRSA ATCC 43300 [4] = assay: Serum effect on antibacterial activity (MIC); format: cell-based, S. aureus; conditions: Staphylococcus aureus
E. faecium ATCC27270 [5] = assay: MIC assay, serial dilution; conditions: Enterococcus faecium
MRSA ATCC 43300 [6] = assay: Minimum biofilm inhibition assay; format: cell-based, S. aureus
Procedure: The biofilm susceptibility assay and calculation of the percent reduction of AB were performed as described previously (Pettit et al., Antimicrob Agents Chem 2005, 49:2612-17). Biofilm formation was induced by growing MRSA on TSA containing 2% glucose at 37° C. for 24 hrs. After the incubation, culture was used to adjust the cell number to 1-5×10^5 CFU/mL. In parallel, two-fold dilutions of test drug/antibiotic in DMSO/solvent was prepared separately in a PCR dilution plate. 100 μL of CFU adjusted 100 μL of culture was added to 96 well plate by leaving wells for only media control. After adding culture, 2-fold diluted compound in 100% DMSO was added to 96 well plate and plates were incubated another 16-20 hrs at 37° C., to check susceptibility of biofilm forming MRSA with test drug/antibiotic. After susceptibility incubation, Resazurin was added to check inhibition of biofilm forming cells.

S. pyogens ATCC49399 [7] = assay: Minimum bactericidal concentration assay; format: cell-based; conditions: Streptococcus
Procedure: (§1) The study was done based on CLSI document M26-A Wayne, PA: Clinical and laboratory standard institute: 1999.
(§2) After determination of a MIC in a broth system under standard conditions, measured aliquots of growth media may be sub-cultured quantitatively to solid media to assess bactericidal activity. To calculate the extent of killing at each antibiotic concentration, plates are incubated under appropriate conditions, colony counts are performed and results are compared to that of the growth control well. The accepted definition of the minimum bactericidal concentration (MBC) is the lowest concentration of test compound at which a 99.9% (3 log) or greater reduction in growth compared with the initial inoculum is observed. […] (Table 4).

E. faecium ATCC27270 [8] = assay: Minimum bactericidal concentration assay; format: cell-based; conditions: Enterococcus faecium
Procedure: as §1, §2

S. pneumoniae ATCC49619 [9] = assay: Minimum bactericidal concentration assay; format: cell-based; conditions: Streptococcus pneumoniae
Procedure: as §1, §2

S. epidermidis ATCC14990 [10] = assay: Minimum bactericidal concentration assay; format: cell-based; conditions: Staphylococcus epidermidis
Procedure: as §1, §2

E. faecalis ATCC29212 [11] = assay: Minimum bactericidal concentration assay; format: cell-based; conditions: Enterococcus faecalis
Procedure: as §1, §2

S. aureus ATCC25923 [12] = assay: Minimum bactericidal concentration assay; format: cell-based; conditions: Staphylococcus aureus
Procedure: as §1, §2

E. faecalis ATCC29212 [13] = assay: MIC assay, serial dilution; conditions: Enterococcus faecalis
[14] = tested on: different species of gram-positive bacteria; assay: MIC assay, summary over gram-positive species; conditions: exception E. faecalis
A. baumannii ATCC19606 = assay: MIC assay, serial dilution; conditions: Acinetobacter baumannii
S. pneumoniae ATCC49619 [15] = assay: MIC assay, serial dilution; conditions: Streptococcus pneumoniae

CC1(C)C2CN(c3ccc4nc5ccc(N6CC7C(C6)C7(C)C)cc5[s+]c4c3)CC21 (stereo not shown) [Compound 1, 3,7-Di(6,6-dimethyl-3-azabicyclo[3.1.0]hexan-N-yl)phenothiazinium iodide]
Organ exposure, concentration (Organ exposure in mice; Brain, 0.5 hrs): 81 ng | Organ exposure, concentration (Organ exposure in mice; Brain, 2 hrs): 56 ng | Organ exposure, concentration (Organ exposure in mice; Brain, 24 hrs): 30 ng | Organ exposure, concentration (Organ exposure in mice; Heart, 0.5 hrs): 1335 ng | Organ exposure, concentration (Organ exposure in mice; Heart, 2 hrs): 1951 ng | Organ exposure, concentration (Organ exposure in mice; Heart, 24 hrs): 821 ng | Organ exposure, concentration (Organ exposure in mice; Kidney, 0.5 hrs): 1817 ng | Organ exposure, concentration (Organ exposure in mice; Kidney, 2 hrs): 2179 ng | Organ exposure, concentration (Organ exposure in mice; Kidney, 24 hrs): 637 ng | Organ exposure, concentration (Organ exposure in mice; Liver, 0.5 hrs): 13897 ng | Organ exposure, concentration (Organ exposure in mice; Liver, 2 hrs): 11563 ng | Organ exposure, concentration (Organ exposure in mice; Liver, 24 hrs): 864 ng | Organ exposure, concentration (Organ exposure in mice; Lungs, 0.5 hrs): 13003 ng | Organ exposure, concentration (Organ exposure in mice; Lungs, 2 hrs): 4178 ng | Organ exposure, concentration (Organ exposure in mice; Lungs, 24 hrs): 661 ng | Organ exposure, concentration (Organ exposure in mice; Muscle, 0.5 hrs): 154.5 ng | Organ exposure, concentration (Organ exposure in mice; Muscle, 2 hrs): 324.5 ng | Organ exposure, concentration (Organ exposure in mice; Muscle, 24 hrs): 168.33 ng | MIC (E. coli ATCC25922; ATCC25922, E. coli ATCC25922): 4 µg/mL | MIC (E. coli ATCC25922; ATCC25922, read-out: Anti-bacterial Activity (E. coli MIC (uM)), E. coli, Table 5): 1.6 µM | MIC (S. epidermidis ATCC14990 [1]): 0.5 µg/mL | MIC (S. aureus ATCC25923 [2]): 0.25 µg/mL | MIC50 (MRSA/S. aureus isolates): 0.125 µg/mL | MIC (S. pyogens ATCC49399 [3]): 0.25 µg/mL | MIC (MRSA ATCC 43300 [4]; MRSA ATCC 43300, 20% serum): 1 µg/mL | MIC (MRSA ATCC 43300 [4]; MRSA ATCC 43300, 40% serum): 2 µg/mL | MIC (MRSA ATCC 43300 [4]; MRSA ATCC 43300, No serum): 0.25 µg/mL | MIC (E. faecium ATCC27270 [5]): 0.5 µg/mL | MBIC (MRSA ATCC 43300 [6]; MRSA ATCC 43300, biofilm forming): 0.25 | concentration inhibiting biofilm forming MRSA (MRSA ATCC 43300 [6]; biofilm forming MRSA): 1 × MIC | MBC (S. pyogens ATCC49399 [7]): 0.5 µg/mL | MBC (E. faecium ATCC27270 [8]): 0.5 µg/mL | MBC (S. pneumoniae ATCC49619 [9]): 0.5 µg/mL | MBC (S. epidermidis ATCC14990 [10]): 1 µg/mL | MBC (E. faecalis ATCC29212 [11]): 2 µg/mL | MBC (S. aureus ATCC25923 [12]): 0.25 µg/mL | MIC (E. faecalis ATCC29212 [13]): 2 µg/mL | MIC range [14]: 0.25 to 0.5 µg/mL | MIC (A. baumannii ATCC19606): 2 µg/mL | MIC (S. pneumoniae ATCC49619 [15]): 0.25 µg/mL
